According to US11760762B2, “Thienopyranones and furanopyranones as kinase, bromodomain, and checkpoint inhibitors” (SignalRx Pharmaceuticals, Inc., priority 2017, dated 2023):
Counter-ions that a name gives are not always drawn. Like-named read-outs stand apart in the source and are kept apart here.

Assays:
Huh7 2H cell line = assay: Huh7 2H cell viability; type: cell-based; conditions: for IC50: Homo sapiens, Huh-7, 2 h
Experimental: (§1) Cells were seeded into 96-well plate at 1×10^4 cell per well in complete medium+10% FCS and incubated for 24 hours prior to the addition of compounds at concentrations ranging from 50 μM to 50 nM. Cell viability was quantitated 24 hours after the addition of compounds using AlamarBlue® viable cell detection reagent. IC50 curves were determined using Graphpad Prism software.
The procedures of example 6 were followed except using the Huh7 2H cell line.

HepG2 = assay: Hepatocellular carcinoma cell viability, AlamarBlue; type: cell-based; conditions: Homo sapiens, 24 hours, read-out: Hepatocarcinoma Cell Line IC50 Values HepG2
Experimental: as §1

Huh7 = assay: as above; type: cell-based; conditions: Homo sapiens, Huh-7; 24 hours; read-out: Hepatocarcinoma Cell Line IC50 Values Huh7
Experimental: as §1

Hep3B = assay: as above; type: cell-based; conditions: Homo sapiens, 24 hours, read-out: Hepatocarcinoma Cell Line IC50 Values Hep3B
Experimental: as §1

PI3K-alpha = biological target: T1, PI3K-alpha (Homo sapiens, UniProt P42336); assay: PI3K inhibition (Thermo Fisher Scientific); type: biochemical; conditions: 10-point curve, grouped by potency; read-out: IC50 P13K α
T1 construct: Thermo Fisher Scientific-Biosciences Life Sciences Solutions, Madison, WI (contract assay service)
Experimental: PI3K-alpha, PI3K-gamma, and PI3K-delta inhibition activity was determined by Thermo Fisher Scientific-Biosciences Life Sciences Solutions, Madison, WI. The bromodomain protein inhibition (binding domain 1 and 2 of BRD4 was determined by Reaction Biology Corp., Malvern, PA The cyclin dependent kinase inhibition on CDK4 and CDK6 was determined by Reaction Biology Corp., Malvern, PA Additional information on each of the above testing procedures and services is available at each company's website on the internet. The IC50 data presented below in Table 11 is calculated from a 10-point curve and is expressed in nanomolar concentration (nM) and grouped according to potency. Where multiple values have been obtained the range from lowest to highest values is presented. NI=no inhibition detected up to 50 μM or IC50 not reached at 50 μM. ND=not done.

PI3K-delta = biological target: T2, PI3K-delta (Homo sapiens, UniProt O00329); assay: PI3K inhibition (Thermo Fisher Scientific); type: biochemical; conditions: 10-point curve, grouped by potency; read-out: IC50 P13K δ
T2 construct: Thermo Fisher Scientific-Biosciences Life Sciences Solutions, Madison, WI (contract assay service)
Experimental: (§2) PI3K-alpha, PI3K-beta, PI3K-gamma, and PI3K-delta inhibition activity was determined by Thermo Fisher Scientific-Biosciences Life Sciences Solutions, Madison, WI The bromodomain protein inhibition (binding domain 1 and 2 of BRD4) was determined by Reaction Biology Corp., Malvern, PA The cyclin dependent kinase inhibition on proteins such as CDK2, CDK4, CDK6, and CDK9 was determined by Reaction Biology Corp., Malvern, PA.
(§3) The compounds of the invention were characterized by their ability to inhibit the target proteins using third party vendors offering such services. PI3K-alpha, PI3K-gamma, and PI3K-delta inhibition activity was determined by Thermo Fisher Scientific-Biosciences Life Sciences Solutions, Madison, WI. […] NI=no inhibition detected up to 50 μM or IC50 not reached at 50 μM. ND=not done.

PI3K-gamma = biological target: T3, PI3K-gamma (Homo sapiens, UniProt P48736); assay: PI3K inhibition (Thermo Fisher Scientific); type: biochemical; conditions: 10-point curve, grouped by potency; read-out: IC50 P13K γ
T3 construct: Thermo Fisher Scientific-Biosciences Life Sciences Solutions, Madison, WI (contract assay service)
Experimental: as §2, §3

BRD4 binding domain 1 = biological target: T4, BRD4 binding domain 1 (Homo sapiens, UniProt O60885); assay: Bromodomain protein inhibition (Reaction Biology Corp.)
T4 construct: Reaction Biology Corp., Malvern, PA (contract assay service)
Experimental: as §2
(§4) The compounds of the invention were characterized by their ability to inhibit the target proteins using third party vendors offering such services. PI3K-alpha, PI3K-gamma, and PI3K-delta inhibition activity was determined by Thermo Fisher Scientific-Biosciences Life Sciences Solutions, Madison, WI. […] ND=not done.

BRD4 binding domain 2 = biological target: T5, BRD4 binding domain 2 (Homo sapiens, UniProt O60885); assay: as above
T5 construct: Reaction Biology Corp., Malvern, PA (contract assay service)
Experimental: as §2, §4

CDK6 = biological target: T6, CDK6 (Homo sapiens, UniProt Q00534); assay: Cyclin dependent kinase inhibition (Reaction Biology Corp.); type: biochemical; conditions: 10-point curve, grouped by potency
T6 construct: Reaction Biology Corp., Malvern, PA (contract assay service)
Experimental: as §2, §3

CDK4 = biological target: T7, CDK4 (Homo sapiens, UniProt P11802); assay: as above; type: biochemical; conditions: 10-point curve, grouped by potency
T7 construct: Reaction Biology Corp., Malvern, PA (contract assay service)
Experimental: as §2, §3

PI3 kinases = conditions: C. J. Vlahos et al., J. Biol. Chem. 1994; cited from earlier work
CDK6/Cyclin D1 = CDK6/Cyclin D1 (Homo sapiens, UniProt Q00534); conditions: Divakar et al., Leukemia 2016; cited from earlier work
CDK4/Cyclin D1 = CDK4/Cyclin D1 (Homo sapiens, UniProt P11802); conditions: Divakar et al., Leukemia 2016; cited from earlier work
Jeko-1 = assay: Mantle cell lymphoma cell viability, AlamarBlue; type: cell-based; conditions: Homo sapiens, JeKo-1; 48 hours; read-out: Mantle Cell Line IC50 Values Jeko-1
Experimental: (§5) Mantle cell lymphoma cell lines Granta, Mino and Jeko-1 were seeded at a density of 2500 cells/0.1 mL per well in a 96-well plate. Compounds 1 or Palbociclib were added post-plating at 50 μM-50 nM concentrations for 48 hours followed by addition of AlamarBlue® and incubation of plates at 37° C. in 5% CO2 for 6 hours. Fluorescence signals were read as emission at 590 nm after excitation at 560 nm. IC50 for each cell line was determined using Graphpad Prism software module.

Mino = assay: Mantle cell lymphoma cell viability, AlamarBlue; type: cell-based; conditions: Homo sapiens, MINO; 48 hours; read-out: Mantle Cell Line IC50 Values Mino
Experimental: as §5

Granta = assay: Mantle cell lymphoma cell viability, AlamarBlue; type: cell-based; conditions: 48 hours; read-out: Mantle Cell Line IC50 Values Granta
Experimental: as §5

[1] = 10-point curve, grouped by potency, read-out: IC50 BRD4-2
[2] = 10-point curve, grouped by potency, read-out: IC50 BRD4-1

T1 sequence (P42336 whole entry): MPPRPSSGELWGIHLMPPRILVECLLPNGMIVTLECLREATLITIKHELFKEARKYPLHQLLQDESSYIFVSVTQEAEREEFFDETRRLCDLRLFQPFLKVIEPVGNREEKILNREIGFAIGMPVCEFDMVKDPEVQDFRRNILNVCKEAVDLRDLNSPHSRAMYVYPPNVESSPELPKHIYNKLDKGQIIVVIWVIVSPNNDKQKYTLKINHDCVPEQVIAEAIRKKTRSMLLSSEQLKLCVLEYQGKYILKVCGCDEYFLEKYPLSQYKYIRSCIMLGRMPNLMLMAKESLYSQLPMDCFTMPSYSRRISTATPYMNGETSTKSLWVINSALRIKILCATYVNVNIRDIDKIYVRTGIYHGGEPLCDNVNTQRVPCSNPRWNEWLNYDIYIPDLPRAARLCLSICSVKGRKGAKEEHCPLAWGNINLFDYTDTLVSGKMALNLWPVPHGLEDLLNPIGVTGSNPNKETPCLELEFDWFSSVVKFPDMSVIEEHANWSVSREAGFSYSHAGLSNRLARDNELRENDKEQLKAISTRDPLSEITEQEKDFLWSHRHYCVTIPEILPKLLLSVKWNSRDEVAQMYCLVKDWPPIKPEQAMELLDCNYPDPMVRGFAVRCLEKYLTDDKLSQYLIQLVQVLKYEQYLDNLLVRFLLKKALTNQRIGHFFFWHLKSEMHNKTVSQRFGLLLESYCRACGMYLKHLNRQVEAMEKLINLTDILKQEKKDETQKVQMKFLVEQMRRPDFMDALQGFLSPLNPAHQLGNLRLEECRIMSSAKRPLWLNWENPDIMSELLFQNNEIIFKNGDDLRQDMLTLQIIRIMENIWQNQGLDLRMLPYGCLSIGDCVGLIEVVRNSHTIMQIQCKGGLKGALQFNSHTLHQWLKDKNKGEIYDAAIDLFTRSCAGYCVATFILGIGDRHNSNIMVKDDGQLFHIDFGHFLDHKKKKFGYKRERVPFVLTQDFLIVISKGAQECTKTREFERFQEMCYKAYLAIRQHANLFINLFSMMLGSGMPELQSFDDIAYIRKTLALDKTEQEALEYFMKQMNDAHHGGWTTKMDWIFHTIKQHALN
T1 sequence (P27986 whole entry partner): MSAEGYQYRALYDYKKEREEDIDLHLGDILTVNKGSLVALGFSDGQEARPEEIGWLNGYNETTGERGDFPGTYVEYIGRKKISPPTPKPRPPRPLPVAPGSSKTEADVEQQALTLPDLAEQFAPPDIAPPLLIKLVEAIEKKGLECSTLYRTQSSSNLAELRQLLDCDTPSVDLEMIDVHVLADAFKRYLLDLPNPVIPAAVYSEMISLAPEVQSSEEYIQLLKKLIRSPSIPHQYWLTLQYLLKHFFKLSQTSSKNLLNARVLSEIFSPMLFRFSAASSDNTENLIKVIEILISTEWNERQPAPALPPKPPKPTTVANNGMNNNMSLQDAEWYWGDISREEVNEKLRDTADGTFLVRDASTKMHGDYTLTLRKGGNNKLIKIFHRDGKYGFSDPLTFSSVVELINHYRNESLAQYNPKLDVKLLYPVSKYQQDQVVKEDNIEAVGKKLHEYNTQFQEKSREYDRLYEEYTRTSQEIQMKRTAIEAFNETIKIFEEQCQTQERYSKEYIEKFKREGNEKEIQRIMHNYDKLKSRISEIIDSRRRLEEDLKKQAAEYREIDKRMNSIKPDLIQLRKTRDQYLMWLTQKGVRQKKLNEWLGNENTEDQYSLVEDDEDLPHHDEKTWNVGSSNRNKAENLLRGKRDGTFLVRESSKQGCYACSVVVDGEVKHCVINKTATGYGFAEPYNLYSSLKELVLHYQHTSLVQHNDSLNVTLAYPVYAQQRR
T3 sequence (P48736 whole entry): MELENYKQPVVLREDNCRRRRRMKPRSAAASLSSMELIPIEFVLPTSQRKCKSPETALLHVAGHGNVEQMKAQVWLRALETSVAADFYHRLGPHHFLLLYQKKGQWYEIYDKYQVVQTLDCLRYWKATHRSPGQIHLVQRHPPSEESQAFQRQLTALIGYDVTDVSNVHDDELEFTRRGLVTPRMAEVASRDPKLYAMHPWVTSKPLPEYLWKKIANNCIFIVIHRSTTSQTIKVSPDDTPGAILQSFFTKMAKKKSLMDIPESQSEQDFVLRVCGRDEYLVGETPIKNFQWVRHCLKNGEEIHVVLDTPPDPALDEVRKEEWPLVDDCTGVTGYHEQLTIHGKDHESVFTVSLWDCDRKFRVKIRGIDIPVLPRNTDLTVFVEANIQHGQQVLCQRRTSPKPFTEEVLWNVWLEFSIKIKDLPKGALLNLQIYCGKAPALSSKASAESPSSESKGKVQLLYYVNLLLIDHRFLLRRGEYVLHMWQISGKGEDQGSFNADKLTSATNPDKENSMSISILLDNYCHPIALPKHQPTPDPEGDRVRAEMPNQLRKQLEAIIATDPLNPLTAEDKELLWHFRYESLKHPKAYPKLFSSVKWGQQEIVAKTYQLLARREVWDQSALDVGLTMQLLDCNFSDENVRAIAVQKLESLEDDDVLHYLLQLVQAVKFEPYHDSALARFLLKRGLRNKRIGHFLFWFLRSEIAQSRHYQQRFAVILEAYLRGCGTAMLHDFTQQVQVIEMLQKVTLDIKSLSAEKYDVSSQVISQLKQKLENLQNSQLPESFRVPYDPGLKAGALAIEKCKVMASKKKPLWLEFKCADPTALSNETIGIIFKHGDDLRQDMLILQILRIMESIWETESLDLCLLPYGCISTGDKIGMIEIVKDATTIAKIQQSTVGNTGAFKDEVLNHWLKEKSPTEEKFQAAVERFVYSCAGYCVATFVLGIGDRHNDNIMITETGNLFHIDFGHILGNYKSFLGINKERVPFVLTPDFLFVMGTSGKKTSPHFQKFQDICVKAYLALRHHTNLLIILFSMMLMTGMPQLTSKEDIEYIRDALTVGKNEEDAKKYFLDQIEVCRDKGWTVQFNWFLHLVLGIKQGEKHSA
T2 sequence (O00329 whole entry): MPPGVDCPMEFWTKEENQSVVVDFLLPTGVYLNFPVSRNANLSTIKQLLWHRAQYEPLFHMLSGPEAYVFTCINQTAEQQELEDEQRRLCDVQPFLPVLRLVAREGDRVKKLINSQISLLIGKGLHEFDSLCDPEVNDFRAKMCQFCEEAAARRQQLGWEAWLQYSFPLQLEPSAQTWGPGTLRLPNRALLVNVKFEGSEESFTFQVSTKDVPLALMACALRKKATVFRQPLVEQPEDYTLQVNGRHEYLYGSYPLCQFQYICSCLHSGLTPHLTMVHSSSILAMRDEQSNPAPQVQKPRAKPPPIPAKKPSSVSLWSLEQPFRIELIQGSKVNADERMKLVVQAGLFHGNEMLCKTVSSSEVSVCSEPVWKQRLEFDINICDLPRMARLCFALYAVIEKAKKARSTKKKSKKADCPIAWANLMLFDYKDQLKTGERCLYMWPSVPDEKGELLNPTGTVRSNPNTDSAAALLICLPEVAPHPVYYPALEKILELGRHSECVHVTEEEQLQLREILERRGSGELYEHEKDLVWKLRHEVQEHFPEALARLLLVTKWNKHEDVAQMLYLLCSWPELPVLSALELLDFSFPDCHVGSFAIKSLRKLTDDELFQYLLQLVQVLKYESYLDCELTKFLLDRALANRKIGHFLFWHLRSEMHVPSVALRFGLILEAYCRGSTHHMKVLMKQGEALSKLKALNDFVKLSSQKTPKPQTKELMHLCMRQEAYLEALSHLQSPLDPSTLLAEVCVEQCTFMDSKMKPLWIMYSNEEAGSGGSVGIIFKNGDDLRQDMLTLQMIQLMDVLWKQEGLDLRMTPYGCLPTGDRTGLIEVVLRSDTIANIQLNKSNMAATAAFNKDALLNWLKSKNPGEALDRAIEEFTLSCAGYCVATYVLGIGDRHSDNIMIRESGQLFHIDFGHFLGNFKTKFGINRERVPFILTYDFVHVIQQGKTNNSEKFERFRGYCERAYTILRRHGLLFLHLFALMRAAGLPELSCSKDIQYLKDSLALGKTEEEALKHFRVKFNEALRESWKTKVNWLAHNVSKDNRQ
T2 sequence (P27986 whole entry partner): as the sequence (P27986 whole entry partner) above
T6 sequence (Q00534 whole entry): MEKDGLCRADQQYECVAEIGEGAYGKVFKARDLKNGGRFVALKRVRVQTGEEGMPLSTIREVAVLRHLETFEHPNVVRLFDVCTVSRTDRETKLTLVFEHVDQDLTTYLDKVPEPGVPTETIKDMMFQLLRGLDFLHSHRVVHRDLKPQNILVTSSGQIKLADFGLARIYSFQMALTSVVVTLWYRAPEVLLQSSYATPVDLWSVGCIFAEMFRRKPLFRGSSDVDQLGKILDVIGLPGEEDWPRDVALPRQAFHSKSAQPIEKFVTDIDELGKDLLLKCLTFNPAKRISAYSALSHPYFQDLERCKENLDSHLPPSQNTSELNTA
T6 sequence (P24385 whole entry partner): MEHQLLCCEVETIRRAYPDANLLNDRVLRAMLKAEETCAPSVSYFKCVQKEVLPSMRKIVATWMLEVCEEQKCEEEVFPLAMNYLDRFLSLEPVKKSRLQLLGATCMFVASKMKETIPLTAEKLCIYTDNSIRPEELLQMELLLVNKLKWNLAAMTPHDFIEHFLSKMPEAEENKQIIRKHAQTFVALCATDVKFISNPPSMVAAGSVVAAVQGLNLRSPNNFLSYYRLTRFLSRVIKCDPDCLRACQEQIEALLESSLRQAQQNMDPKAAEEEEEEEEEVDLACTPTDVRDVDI
T7 sequence (P11802 whole entry): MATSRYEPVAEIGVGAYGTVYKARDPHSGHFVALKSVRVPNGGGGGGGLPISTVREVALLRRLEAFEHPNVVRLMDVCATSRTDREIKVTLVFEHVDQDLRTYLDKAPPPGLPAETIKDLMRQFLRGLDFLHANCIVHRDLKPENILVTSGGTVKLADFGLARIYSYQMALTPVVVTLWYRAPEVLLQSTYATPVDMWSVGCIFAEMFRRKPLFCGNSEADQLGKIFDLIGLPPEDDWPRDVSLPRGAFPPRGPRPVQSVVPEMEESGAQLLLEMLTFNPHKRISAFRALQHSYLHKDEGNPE
T7 sequence (P24385 whole entry partner): as the sequence (P24385 whole entry partner) above
CDK6/Cyclin D1, sequence (Q00534 whole entry, species assumed): as the sequence (Q00534 whole entry) above
CDK6/Cyclin D1, sequence (P24385 whole entry partner, species assumed): as the sequence (P24385 whole entry partner) above

SMILES	IC50 (PI3K-alpha)	IC50 (PI3K-delta)	IC50 (PI3K-gamma)	IC50 (BRD4 binding domain 2; [1])	IC50 (CDK6)	IC50 (CDK4)	IC50 (BRD4 binding domain 1; [2])	other results
O=c1cc(N2CCOCC2)oc2c(-c3ccc4c(c3)OCCO4)csc12 [Compound 0, reference compound]	–	–	–	–	–	–	–	IC50 (Huh7 2H cell line): 2970 to 5900 nM; IC50 (HepG2): 5000 nM; IC50 (Huh7): 14300 nM; IC50 (Hep3B): 6600 nM
CN(C)C(=O)c1cc2cnc(Nc3ccc(-c4csc5c(=O)cc(N6CCOCC6)oc45)cn3)nc2n1C1CCCC1 [Compound 3, {1-Cyclopentyl-6-[5-(5-morpholino-7-oxo-4-oxa-1-thia-3-indenyl)-2-pyridylamino]-1,5,7-triaza-1H-inden-2-yl}(dimethylamino)formaldehyde]	100 to 1000 nM	< 100 nM	100 to 1000 nM	100 to 1000 nM	< 100 nM	< 100 nM	–	IC50 BRD4-1 (BRD4 binding domain 1; 10-point curve, grouped by potency): * to **
COC(=O)c1cc(-c2csc3c(=O)cc(N4CCOCC4)oc23)ccc1Nc1ncc2cc(C(=O)N(C)C)n(C3CCCC3)c2n1 [Compound 4, Methyl 2-[1-cyclopentyl-2-(dimethylamino)carbonyl-1,5,7-triaza-1H-inden-6-ylamino]-5-(5-morpholino-7-oxo-4-oxa-1-thia-3-indenyl)benzoate]	100 to 1000 nM	100 to 1000 nM	1000 to 5000 nM	1000 to 5000 nM	> 50000 nM	> 50000 nM	100 to 1000 nM	–
Cc1nc2c(F)cc(-c3nc(Nc4ccc(-c5csc6c(=O)cc(N7CCOCC7)oc56)cc4)ncc3F)cc2n1C(C)C [Compound 5, 3-{p-[5-Fluoro-4-(7-fluoro-3-isopropyl-2-methyl-1,3-diaza-3H-inden-5-yl)-2-pyrimidinylamino]phenyl}-5-morpholino-4-oxa-1-thia-7-indenone]	5000 to 50000 nM	1000 to 5000 nM	> 50000 nM	> 50000 nM	< 100 nM	< 100 nM	> 50000 nM	–
CC(=O)c1c(C)c2cnc(Nc3ccc(-c4csc5c(=O)cc(N6CCOCC6)oc45)cc3)nc2n(C2CCCC2)c1=O [Compound 6, 1-{8-cyclopentyl-5-methyl-2-[p-(5-morpholino-7-oxo-4-oxa-1-thia-3-indenyl)phenylamino]-7-oxo-1,3,8-triaza-8H-naphth-6-yl}-1-ethanone]	< 100 nM	< 100 nM	1000 to 5000 nM	100 to 1000 nM	< 100 nM	< 100 nM	100 to 1000 nM	–
COC(=O)c1cc(Nc2ncc3cc(C(=O)N(C)C)n(C4CCCC4)c3n2)ccc1-c1csc2c(=O)cc(N3CCOCC3)oc12 [Compound 7, Methyl 5-[1-cyclopentyl-2-(dimethylamino)carbonyl-1,5,7-triaza-1H-inden-6-ylamino]-2-(5-morpholino-7-oxo-4-oxa-1-thia-3-indenyl)benzoate]	100 to 1000 nM	< 100 nM	1000 to 5000 nM	100 to 1000 nM	< 100 nM	< 100 nM	100 to 1000 nM	–
CN(C)C(=O)c1cc2cnc(Nc3ccc(-c4csc5c(=O)cc(N6CCOCC6)oc45)c(C(=O)O)c3)nc2n1C1CCCC1 [Compound 10, 5-[1-Cyclopentyl-2-(dimethylamino)carbonyl-1,5,7-triaza-1H-inden-6-ylamino]-2-(5-morpholino-7-oxo-4-oxa-1-thia-3-indenyl)benzoic acid]	< 100 nM	100 to 1000 nM	100 to 1000 nM	100 to 1000 nM	5000 to 50000 nM	5000 to 50000 nM	< 100 nM	–
CN(C)C(=O)c1cc2cnc(Nc3ccc(-c4csc5c(=S)cc(N6CCOCC6)oc45)cc3)nc2n1C1CCCC1 [Compound 11, {1-Cyclopentyl-6-[p-(5-morpholino-7-thioxo-4-oxa-1-thia-3-indenyl)phenylamino]-1,5,7-triaza-1H-inden-2-yl}(dimethylamino)formaldehyde]	100 to 1000 nM	100 to 1000 nM	5000 to 50000 nM	1000 to 5000 nM	< 100 nM	< 100 nM	1000 to 5000 nM	–
CN(C)C(=S)c1cc2cnc(Nc3ccc(-c4csc5c(=S)cc(N6CCOCC6)oc45)cc3)nc2n1C1CCCC1 [Compound 12, 7-Cyclopentyl-N,N-dimethyl-2-((4-(5-morpholino-7-thioxo-7H-thieno[3,2-b]pyran-3-yl)phenyl)amino)-7H-pyrrolo[2,3-d]pyrimidine-6-carbothioamide]	100 to 1000 nM	100 to 1000 nM	5000 to 50000 nM	5000 to 50000 nM	100 to 1000 nM	100 to 1000 nM	5000 to 50000 nM	–
CN(C)C(=O)c1cc2cnc(Nc3ccc(-c4csc5c(=O)cc(N6CCN(C(=O)OC(C)(C)C)CC6)oc45)cc3)nc2n1C1CCCC1 [Compound 18]	5000 to 50000 nM	100 to 1000 nM	1000 to 5000 nM	1000 to 5000 nM	< 100 nM	< 100 nM	100 to 1000 nM	–
O=c1cc(N2CCOCC2)oc2c(-c3ccccc3)cccc12 [LY294002, 2-(4-morpholinyl)-8-phenyl-4H-1-benzopyran-4-one]	–	–	–	–	–	–	–	IC50 (PI3 kinases): 1400 nM
CN1CCN(c2ccc(Nc3ncc4cc(C#N)c(=O)n(C5CCCC5)c4n3)cc2)CC1 [ON123300, reference compound]	–	–	–	–	–	–	–	IC50 (CDK6/Cyclin D1): 9.82 nM; IC50 (BRD4 binding domain 1; read-out: IC50 BRD4 binding domain 1): 45600 nM; IC50 (BRD4 binding domain 2; read-out: IC50 BRD4 binding domain 2): > 50000 nM; IC50 (CDK4/Cyclin D1): 3.87 nM
CC(=O)c1c(C)c2cnc(Nc3ccc(N4CCNCC4)cn3)nc2n(C2CCCC2)c1=O [Palbociclib, reference compound]	–	–	–	–	–	–	–	IC50 (Huh7 2H cell line): 9200 nM; times less potent than Compound 1, Huh7 2H (Huh7 2H cell line; ratio of IC50 values): about 18 times; IC50 (Jeko-1): 7430 nM; IC50 (Mino): 47900 nM; IC50 (Granta): 10200 nM
CN(C)C(=O)c1cc2cnc(Nc3ccc(-c4csc5c(=O)cc(N6CCNCC6)oc45)cc3)nc2n1C1CCCC1 [compound 2, (1-Cyclopentyl-6-{p-[7-oxo-5-(1-piperazinyl)-4-oxa-1-thia-3-indenyl]phenylamino}-1,5,7-triaza-1H-inden-2-yl)(dimethylamino)formaldehyde hydrochloride]	5000 to 50000 nM	5000 to 50000 nM	5000 to 50000 nM	100 to 1000 nM	< 100 nM	< 100 nM	100 to 1000 nM	–
